Source: PubChem BioAssay (NCI)
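Results reflect a 48-hour exposure of cells in 96-well plates to compound at five concentrations. At the TGI there is no net growth.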

What was measured:
Assay in all cases: DTP human tumour cell line panel, 48 h
HOP-92 NSCLC = tested on: HOP-92 NSCLC
SF-295 CNS = tested on: SF-295 CNS
SF-539 CNS = tested on: SF-539 CNS
NCI-H522 lung = tested on: NCI-H522 lung
RPMI-8226 leukemia = tested on: RPMI-8226 leukemia
A549 NSCLC = tested on: A549 NSCLC
NCI-H460 lung = tested on: NCI-H460 lung
XF 498 CNS = tested on: XF 498 CNS
CAKI-1 renal = tested on: CAKI-1 renal
HOP-62 NSCLC = tested on: HOP-62 NSCLC
M19-MEL melanoma = tested on: M19-MEL melanoma
UACC-62 melanoma = tested on: UACC-62 melanoma
LOX IMVI melanoma = tested on: LOX IMVI melanoma
DLD-1 colon = tested on: DLD-1 colon
HCT-116 colon = tested on: HCT-116 colon
DMS 273 small cell lung = tested on: DMS 273 small cell lung
NCI-H23 lung = tested on: NCI-H23 lung
EKVX NSCLC = tested on: EKVX NSCLC
RXF 393 renal = tested on: RXF 393 renal
786-0 renal = tested on: 786-0 renal
K-562 leukemia = tested on: K-562 leukemia
SW-620 colon = tested on: SW-620 colon
TK-10 renal = tested on: TK-10 renal
KM20L2 colon = tested on: KM20L2 colon
HCT-15 colon = tested on: HCT-15 colon
HT29 colon = tested on: HT29 colon
UO-31 renal = tested on: UO-31 renal
OVCAR-8 ovarian = tested on: OVCAR-8 ovarian
M14 melanoma = tested on: M14 melanoma
SK-OV-3 ovarian = tested on: SK-OV-3 ovarian
SK-MEL-5 melanoma = tested on: SK-MEL-5 melanoma
SN12C renal = tested on: SN12C renal
U251 CNS = tested on: U251 CNS
SNB-19 CNS = tested on: SNB-19 CNS
HS 578T breast = tested on: HS 578T breast
SK-MEL-2 melanoma = tested on: SK-MEL-2 melanoma
SF-268 CNS = tested on: SF-268 CNS
MDA-MB-435 = tested on: MDA-MB-435
OVCAR-3 ovarian = tested on: OVCAR-3 ovarian
SNB-75 CNS = tested on: SNB-75 CNS
HCC-2998 colon = tested on: HCC-2998 colon
ACHN renal = tested on: ACHN renal
MDA-N = tested on: MDA-N
PC-3 prostate = tested on: PC-3 prostate
NCI-H226 lung = tested on: NCI-H226 lung
OVCAR-5 ovarian = tested on: OVCAR-5 ovarian
CCRF-CEM leukemia = tested on: CCRF-CEM leukemia
T-47D breast = tested on: T-47D breast
IGROV1 ovarian = tested on: IGROV1 ovarian
A498 renal = tested on: A498 renal
SK-MEL-28 melanoma = tested on: SK-MEL-28 melanoma
BT-549 breast = tested on: BT-549 breast
NCI/ADR-RES ovarian = tested on: NCI/ADR-RES ovarian
MDA-MB-231 breast = tested on: MDA-MB-231 breast
OVCAR-4 ovarian = tested on: OVCAR-4 ovarian
MCF7 breast = tested on: MCF7 breast
KM12 colon = tested on: KM12 colon
UACC-257 melanoma = tested on: UACC-257 melanoma
MALME-3M melanoma = tested on: MALME-3M melanoma
HL-60(TB) leukemia = tested on: HL-60(TB) leukemia
MOLT-4 leukemia = tested on: MOLT-4 leukemia
COLO 205 colon = tested on: COLO 205 colon
SR leukemia = tested on: SR leukemia
DU-145 prostate = tested on: DU-145 prostate

Cc1nc2ccccc2c(=O)n1/N=C(\N=Nc1cccc(Cl)c1)c1ccccc1Cl
TGI (HOP-92 NSCLC): 58.5 µM
TGI (SF-295 CNS): 71.5 µM
TGI (SF-539 CNS): 89 µM
TGI (NCI-H522 lung): > 100 µM
TGI (RPMI-8226 leukemia): > 100 µM
TGI (A549 NSCLC): > 100 µM
TGI (NCI-H460 lung): > 100 µM
TGI (XF 498 CNS): 3.91 µM
TGI (CAKI-1 renal): > 100 µM
TGI (HOP-62 NSCLC): > 100 µM
TGI (M19-MEL melanoma): > 100 µM
TGI (UACC-62 melanoma): > 100 µM
TGI (LOX IMVI melanoma): > 100 µM
TGI (DLD-1 colon): > 100 µM
TGI (HCT-116 colon): > 100 µM
TGI (DMS 273 small cell lung): > 100 µM
TGI (NCI-H23 lung): > 100 µM
TGI (EKVX NSCLC): > 100 µM
TGI (RXF 393 renal): 55.2 µM
TGI (786-0 renal): > 100 µM
TGI (K-562 leukemia): 3.73 µM
TGI (SW-620 colon): > 100 µM
TGI (TK-10 renal): > 100 µM
TGI (KM20L2 colon): > 100 µM
TGI (HCT-15 colon): > 100 µM
TGI (HT29 colon): > 100 µM
TGI (UO-31 renal): > 100 µM
TGI (OVCAR-8 ovarian): > 100 µM
TGI (M14 melanoma): > 100 µM
TGI (SK-OV-3 ovarian): 62.8 µM
TGI (SK-MEL-5 melanoma): > 100 µM
TGI (SN12C renal): > 100 µM
TGI (U251 CNS): > 100 µM

N=C(N)SCCCN
TGI (HOP-92 NSCLC): > 40.6 µM
TGI (SNB-19 CNS): > 82.7 µM
TGI (SF-295 CNS): > 66.8 µM
TGI (SF-539 CNS): 30.9 µM
TGI (NCI-H522 lung): 25.5 µM
TGI (HS 578T breast): 43.5 µM
TGI (SK-MEL-2 melanoma): 32.2 µM
TGI (RPMI-8226 leukemia): > 68.9 µM
TGI (A549 NSCLC): > 100 µM
TGI (NCI-H460 lung): 15.8 µM
TGI (SF-268 CNS): 79.2 µM
TGI (MDA-MB-435): 14 µM
TGI (OVCAR-3 ovarian): 30.5 µM
TGI (CAKI-1 renal): > 69.9 µM
TGI (SNB-75 CNS): > 100 µM
TGI (HCC-2998 colon): 20.3 µM
TGI (ACHN renal): 26.5 µM
TGI (HOP-62 NSCLC): 35.7 µM
TGI (MDA-N): 26 µM
TGI (UACC-62 melanoma): 35 µM
TGI (PC-3 prostate): 54.1 µM
TGI (LOX IMVI melanoma): 13.6 µM
TGI (NCI-H226 lung): 66 µM
TGI (OVCAR-5 ovarian): > 100 µM
TGI (CCRF-CEM leukemia): 9.2 µM
TGI (HCT-116 colon): 30.7 µM
TGI (T-47D breast): > 100 µM
TGI (IGROV1 ovarian): 15.6 µM
TGI (NCI-H23 lung): 41.2 µM
TGI (EKVX NSCLC): > 91.4 µM
TGI (RXF 393 renal): 26 µM
TGI (A498 renal): > 100 µM
TGI (786-0 renal): 66.1 µM
TGI (K-562 leukemia): > 66.8 µM
TGI (SW-620 colon): > 100 µM
TGI (SK-MEL-28 melanoma): > 86 µM
TGI (BT-549 breast): > 60.9 µM
TGI (NCI/ADR-RES ovarian): > 62.1 µM
TGI (MDA-MB-231 breast): 12.1 µM
TGI (TK-10 renal): 20.7 µM
TGI (HCT-15 colon): > 100 µM
TGI (OVCAR-4 ovarian): > 30.9 µM
TGI (MCF7 breast): > 59.9 µM
TGI (KM12 colon): 59.6 µM
TGI (HT29 colon): 62.3 µM
TGI (UACC-257 melanoma): 26 µM
TGI (UO-31 renal): 37.5 µM
TGI (OVCAR-8 ovarian): > 100 µM
TGI (M14 melanoma): 14.2 µM
TGI (MALME-3M melanoma): 29.1 µM
TGI (HL-60(TB) leukemia): 7.75 µM
TGI (MOLT-4 leukemia): 3.16 µM
TGI (SK-OV-3 ovarian): 73.4 µM
TGI (SK-MEL-5 melanoma): 30.1 µM
TGI (COLO 205 colon): 29.5 µM
TGI (SR leukemia): 23.5 µM
TGI (SN12C renal): 69.8 µM
TGI (DU-145 prostate): 51.1 µM
TGI (U251 CNS): 24.6 µM

O=C(/C=C(\O)c1ccccc1)/C(=C/C(=O)c1ccccc1)NN=C(c1ccccc1)c1ccccc1
TGI (HOP-92 NSCLC): > 100 µM
TGI (SNB-19 CNS): > 100 µM
TGI (SF-295 CNS): > 100 µM
TGI (SF-539 CNS): > 100 µM
TGI (NCI-H522 lung): 63 µM
TGI (HS 578T breast): > 100 µM
TGI (SK-MEL-2 melanoma): 84.2 µM
TGI (RPMI-8226 leukemia): > 100 µM
TGI (A549 NSCLC): > 100 µM
TGI (NCI-H460 lung): 72.8 µM
TGI (SF-268 CNS): > 100 µM
TGI (MDA-MB-435): > 100 µM
TGI (OVCAR-3 ovarian): 67.1 µM
TGI (CAKI-1 renal): > 100 µM
TGI (SNB-75 CNS): > 100 µM
TGI (HCC-2998 colon): 58.7 µM
TGI (ACHN renal): > 100 µM
TGI (HOP-62 NSCLC): > 100 µM
TGI (MDA-N): > 100 µM
TGI (UACC-62 melanoma): 36.7 µM
TGI (PC-3 prostate): > 100 µM
TGI (LOX IMVI melanoma): > 100 µM
TGI (NCI-H226 lung): 72.7 µM
TGI (OVCAR-5 ovarian): > 100 µM
TGI (CCRF-CEM leukemia): 54.7 µM
TGI (HCT-116 colon): > 100 µM
TGI (T-47D breast): > 100 µM
TGI (IGROV1 ovarian): > 100 µM
TGI (NCI-H23 lung): 79.9 µM
TGI (EKVX NSCLC): > 100 µM
TGI (RXF 393 renal): > 100 µM
TGI (A498 renal): > 100 µM
TGI (786-0 renal): > 100 µM
TGI (K-562 leukemia): > 100 µM
TGI (SW-620 colon): > 100 µM
TGI (SK-MEL-28 melanoma): > 100 µM
TGI (BT-549 breast): > 100 µM
TGI (NCI/ADR-RES ovarian): 77.6 µM
TGI (MDA-MB-231 breast): > 100 µM
TGI (TK-10 renal): 97.6 µM
TGI (HCT-15 colon): > 100 µM
TGI (OVCAR-4 ovarian): > 100 µM
TGI (MCF7 breast): > 100 µM
TGI (KM12 colon): > 100 µM
TGI (HT29 colon): > 100 µM
TGI (UACC-257 melanoma): 73.1 µM
TGI (UO-31 renal): > 100 µM
TGI (OVCAR-8 ovarian): > 100 µM
TGI (M14 melanoma): 72.6 µM
TGI (MALME-3M melanoma): > 100 µM
TGI (HL-60(TB) leukemia): 6.8 µM
TGI (MOLT-4 leukemia): 52.5 µM
TGI (SK-OV-3 ovarian): 92.5 µM
TGI (SK-MEL-5 melanoma): 43 µM
TGI (COLO 205 colon): > 100 µM
TGI (SR leukemia): > 100 µM
TGI (SN12C renal): > 100 µM
TGI (DU-145 prostate): > 100 µM
TGI (U251 CNS): > 100 µM
